Measured values: patent US12257251B2, “Use of FAK inhibitor in preparation of drug for treating tumors having NRAS mutation” (INXMED (NANJING) CO., LTD., priority 2019, dated 2025)

How the values were obtained:
[1] = test system: human esophageal cancer cell line KYSE-270; experiment: Subcutaneous xenograft of human esophageal cancer cell line KYSE-270 in NMRI nude mice: tumor growth; assay type: in vivo, mouse; conditions: for Tumor shrinkage [x/y]: BI853520 50 mg/Kg qd
Experimental: 1.1. Model: Subcutaneous xenograft of human esophageal cancer cell line KYSE-270 in NMRI nude mice.
1.3. Cells: KYSE-270 is an esophageal cancer cell line (Public Health England, catalog number: 94072021). Cells were cultured in T175 tissue culture flasks containing 5% CO2 at 37° C. The medium was RPMI 1640+HAM F12 (1:1) supplemented with 2% FCS and 2 mM Glutamax. Passage was performed three times a week at a ratio of 1:2.
1.4. Mice: Mice were 8 to 10 week old female mice (BomTac: NMRI-Foxn1^nu) purchased from Taconic®, Denmark. Upon arrival in the animal room, the mice were allowed to acclimate for at least 5 days before being used for assay. The animals were housed under standard conditions (temperature: 21.5±1.5° C., humidity: 55+10%), 7 to 10 mice for each group. A standard diet and autoclaved tap water were provided for ad libitum feeding. A subcutaneous microchip implanted under isoflurane anesthesia was used to identify each mouse.
1.5. Random establishment of tumors: To establish subcutaneous tumors, KYSE-270 cells were harvested by centrifugation, washed and resuspended in PBS+5% FCS at a concentration of 5×10^7 cells/ml. Then 100 l of cell suspension containing 5×10^6 cells was injected subcutaneously into the right flank of mice (1 site per mouse). When tumors were well established and reached a volume of 94 to 252 mm^3, mice were randomly assigned to the treatment group and the control group (13 days after cell injection).
1.6. Administration: BI 853520 was suspended in 0.5% hydroxyethyl cellulose, which was administered intragastrically through gavage needle every day, and the dosage was 10 mL/Kg body weight. Paclitaxel was dissolved in saline (0.9% NaCl), which was administered intravenously in a volume of 10 ml/kg body weight. The suspension of BI853520 could be used for up to 7 days. Paclitaxel solution was stored at 6° C. and used for up to 14 days.
1.7. Monitoring tumor growth and side effects: Tumor diameters were measured with calipers three times a week. The volume [mm^3] of each tumor was calculated according to the equation “tumor volume=length×diameter^2×π/6”. To monitor the side effects of the treatment, the mice were checked daily for abnormalities and their body weights were measured three times a week. For ethical reasons, animals with tumors larger than 1.5 cm in diameter, ulcerated tumors, or 20% body weight loss were euthanized.
Statistical assessment of tumor volume and body weight on day 13 was performed. Animal number 1 (control group) was excluded from the statistical evaluation because of weight loss and had to be euthanized early (day 9). Measured tumor volume was used as the target variable in the statistical analysis. The number of animals and the median, minimum and maximum tumor volumes in each group were calculated. For a quick overview of possible treatment effects, the median tumor volume for each treatment group T and the median tumor volume for the control group C were used to calculate TGI: TGI=100×[(Cd−C1)−(Td−T1)]/(Cd−C1) • wherein, C1, T1=median tumor volume in control and treatment groups at the start of the assay (day 1). • Cd, Td=median tumor volume in control and treatment groups at the end of the assay (day 13).
The wilcoxon test was used for comparison. For body weight, the percent change relative to initial body weight on day 1 was used as the target variable for statistical analysis. The number of animals, and the median, minimum and maximum weight changes in each group were calculated.
One-sided test to compare all treatment groups with control group was performed for observing: • reduction in tumor volume (inhibition of tumor growth, efficacy parameter) and • reduction in weight changes (weight loss, tolerance parameters).
Within each subtopic, p-values for the efficacy parameter were compared and adjusted for multiple times according to Bonferroni-Holm. The p-value for the tolerance parameter was kept constant so as not to overlook possible side effects. […]

[2] = Body weight change (tolerability) in the HT-1080 mouse study; assay type: in vivo; conditions: 12.5 mg/kg qd, end of the assay (day 13) versus day 1
Experimental: • 1. Materials and Method: • 1.1. Design of Research • Treatment began when the median tumor volume was between 70-130 mm^3. • 10 mice in the control group, and 7 mice in the treatment group. • Oral gavage once daily. • Control: 0.5% hydroxyethyl cellulose • BI 853520: 50 mg/kg, 25 mg/kg, 12.5 mg/kg, 6 mg/kg, • Tumor volume was measured 3 times a week and body weight was monitored daily. • Evaluation of treatment outcome was based on absolute volume of individual tumors. • Tolerability was assessed based on changes in body weight.
Tumor diameters were measured with calipers three times a week (Monday, Wednesday, and Friday). The volume of each tumor [in mm^3] was calculated according to the equation, “tumor volume=length×diameter^2×π/6”. To monitor the side effects of the treatment, the mice were checked daily for abnormalities and their body weights were measured daily. Animals were sacrificed at the end of the study (approximately two weeks after the start of treatment). During the study, animals with tumor necrosis or tumors larger than 2000 mm^3 were sacrificed ahead of schedule for ethical reasons.
At the end of the assay on day 13, statistical evaluation of tumor volume and body weight parameters was performed. […] A nonparametric approach was used, and the number of observations, median, minimum and maximum values were calculated. […]

[3] = test system: 37 different tumors (human tumor CDX); conditions: across CDX models of 37 different tumors; cited from earlier work

With `COc1cc(C(=O)NC2CCN(C)CC2)c(F)cc1Nc1ncc(C(F)(F)F)c(Oc2cccc3c2C(=O)N(C)C3)n1` [BI853520] the TGI ([1]; BI853520 50 mg/Kg qd p.o., day 13) was 106%, the “Tumor shrinkage [x/y]” value ([1]; day 13, 50 mg/kg) was 6/7 and the “Tumor shrinkage [x/y]” value ([1]; day 13, listed as BI 853520, 50 mg/kg) was 6 of 7. The “Inhibition of tumor growth (in words)” value ([1]; BI 853520 50 mg/kg) was “statistically significant inhibition of tumor growth”, the Median tumor volume ([1]; BI 853520 50 mg/kg per day, day 13 (start 175 mm^3)) was 126 mm^3 and the Median weight change [2] was 5.7%. For the same molecule, the “TGI (tumor growth inhibition) span” value [3] was 0 to 107%.
